Data as given in the supplement of paper PMC10307832.

Tests used:
Test in all cases: relative viability (nuclei count vs DMSO), 5 days (fraction); higher = more cells survive
201T = system: 201T
Outline: (§1)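 Nuclei were stained with Hoechst during a one-step fixation (final 0.05% Triton X-100, 1% formaldehyde, 1 ug/ml Hoechst) carried out 5 days after dosing, then counted on 4× images. The cells, lung cancer lines in 1536-well plates, had been dosed by pin tool the day after seeding with one drug alone or a fixed anchor-drug dose plus five library-drug doses (not always all listed) in √10 steps. Relative viability is the nuclei count in treated wells divided by that in vehicle wells, and each value is the median of duplicate plates.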

BEN = system: BEN
Outline: as §1

COR-L 105 = system: COR-L 105
Outline: as §1

EKVX = system: EKVX
Outline: as §1

EPLC-272H = system: EPLC-272H
Outline: as §1

H3255 = system: H3255
Outline: as §1

HCC-44 = system: HCC-44
Outline: as §1

HCC-827 = system: HCC-827
Outline: as §1

HOP-62 = system: HOP-62
Outline: as §1

LCLC-97TM1 = system: LCLC-97TM1
Outline: as §1

LOU-NH91 = system: LOU-NH91
Outline: as §1

LU99A = system: LU99A
Outline: as §1

NCI-H1395 = system: NCI-H1395
Outline: as §1

NCI-H1437 = system: NCI-H1437
Outline: as §1

NCI-H1666 = system: NCI-H1666
Outline: as §1

NCI-H1975 = system: NCI-H1975
Outline: as §1

NCI-H2085 = system: NCI-H2085
Outline: as §1

NCI-H2087 = system: NCI-H2087
Outline: as §1

NCI-H2342 = system: NCI-H2342
Outline: as §1

NCI-H358 = system: NCI-H358
Outline: as §1

NCI-H647 = system: NCI-H647
Outline: as §1

PC-3 [JPC-3] = system: PC-3 [JPC-3]
Outline: as §1

SW 1573 = system: SW 1573
Outline: as §1

NC(=O)Nc1cc(-c2cccc(F)c2)sc1C(=O)N[C@H]1CCCNC1 [AZD7762] + CC(=O)c1c(C)c2cnc(Nc3ccc(N4CCNCC4)cn3)nc2n(C2CCCC2)c1=O [Palbociclib] (partner 0.5 µM)
relative viability (201T; first compound 0.01 µM): 0.361 | relative viability (201T; first compound 0.03162 µM): 0.348 | relative viability (201T; first compound 0.1 µM): 0.361 | relative viability (201T; first compound 0.3162 µM): 0.386 | relative viability (201T; first compound 1 µM): 0.402 | relative viability (BEN; first compound 0.01 µM): 0.476 | relative viability (BEN; first compound 0.03162 µM): 0.483 | relative viability (BEN; first compound 0.1 µM): 0.436 | relative viability (BEN; first compound 0.3162 µM): 0.422 | relative viability (BEN; first compound 1 µM): 0.366 | relative viability (COR-L 105; first compound 0.01 µM): 0.414 | relative viability (COR-L 105; first compound 0.03162 µM): 0.415 | relative viability (COR-L 105; first compound 0.1 µM): 0.367 | relative viability (COR-L 105; first compound 0.3162 µM): 0.386 | relative viability (COR-L 105; first compound 1 µM): 0.372 | relative viability (EKVX; first compound 0.01 µM): 0.414 | relative viability (EKVX; first compound 0.03162 µM): 0.415 | relative viability (EKVX; first compound 0.1 µM): 0.372 | relative viability (EKVX; first compound 0.3162 µM): 0.445 | relative viability (EKVX; first compound 1 µM): 0.299 | relative viability (EPLC-272H; first compound 0.01 µM): 0.325 | relative viability (EPLC-272H; first compound 0.03162 µM): 0.297 | relative viability (EPLC-272H; first compound 0.1 µM): 0.351 | relative viability (EPLC-272H; first compound 0.3162 µM): 0.307 | relative viability (EPLC-272H; first compound 1 µM): 0.362 | relative viability (H3255; first compound 0.01 µM): 0.329 | relative viability (H3255; first compound 0.03162 µM): 0.312 | relative viability (H3255; first compound 0.1 µM): 0.362 | relative viability (H3255; first compound 0.3162 µM): 0.366 | relative viability (H3255; first compound 1 µM): 0.35 | relative viability (HCC-44; first compound 0.01 µM): 1.02 | relative viability (HCC-44; first compound 0.03162 µM): 0.923 | relative viability (HCC-44; first compound 0.1 µM): 0.965 | relative viability (HCC-44; first compound 0.3162 µM): 0.93 | relative viability (HCC-44; first compound 1 µM): 1.04 | relative viability (HCC-827; first compound 0.01 µM): 0.544 | relative viability (HCC-827; first compound 0.03162 µM): 0.469 | relative viability (HCC-827; first compound 0.1 µM): 0.486 | relative viability (HCC-827; first compound 0.3162 µM): 0.498 | relative viability (HCC-827; first compound 1 µM): 0.303 | relative viability (HOP-62; first compound 0.01 µM): 0.476 | relative viability (HOP-62; first compound 0.03162 µM): 0.394 | relative viability (HOP-62; first compound 0.1 µM): 0.545 | relative viability (HOP-62; first compound 0.3162 µM): 0.484 | relative viability (HOP-62; first compound 1 µM): 0.487 | relative viability (LCLC-97TM1; first compound 0.01 µM): 0.214 | relative viability (LCLC-97TM1; first compound 0.03162 µM): 0.221 | relative viability (LCLC-97TM1; first compound 0.1 µM): 0.253 | relative viability (LCLC-97TM1; first compound 0.3162 µM): 0.28 | relative viability (LCLC-97TM1; first compound 1 µM): 0.274 | relative viability (LOU-NH91; first compound 0.01 µM): 0.528 | relative viability (LOU-NH91; first compound 0.03162 µM): 0.525 | relative viability (LOU-NH91; first compound 0.1 µM): 0.542 | relative viability (LOU-NH91; first compound 0.3162 µM): 0.609 | relative viability (LOU-NH91; first compound 1 µM): 0.503 | relative viability (LU99A; first compound 0.01 µM): 0.469 | relative viability (LU99A; first compound 0.03162 µM): 0.427 | relative viability (LU99A; first compound 0.1 µM): 0.438 | relative viability (LU99A; first compound 0.3162 µM): 0.408 | relative viability (LU99A; first compound 1 µM): 0.354 | relative viability (NCI-H1395; first compound 0.01 µM): 0.642 | relative viability (NCI-H1395; first compound 0.03162 µM): 0.68 | relative viability (NCI-H1395; first compound 0.1 µM): 0.56 | relative viability (NCI-H1395; first compound 0.3162 µM): 0.456 | relative viability (NCI-H1395; first compound 1 µM): 0.363 | relative viability (NCI-H1437; first compound 0.01 µM): 0.357 | relative viability (NCI-H1437; first compound 0.03162 µM): 0.293 | relative viability (NCI-H1437; first compound 0.1 µM): 0.379 | relative viability (NCI-H1437; first compound 0.3162 µM): 0.41 | relative viability (NCI-H1437; first compound 1 µM): 0.35 | relative viability (NCI-H1666; first compound 0.01 µM): 0.609 | relative viability (NCI-H1666; first compound 0.03162 µM): 0.728 | relative viability (NCI-H1666; first compound 0.1 µM): 0.701 | relative viability (NCI-H1666; first compound 0.3162 µM): 0.565 | relative viability (NCI-H1666; first compound 1 µM): 0.65 | relative viability (NCI-H1975; first compound 0.01 µM): 0.519 | relative viability (NCI-H1975; first compound 0.03162 µM): 0.549 | relative viability (NCI-H1975; first compound 0.1 µM): 0.585 | relative viability (NCI-H1975; first compound 0.3162 µM): 0.352 | relative viability (NCI-H1975; first compound 1 µM): 0.357 | relative viability (NCI-H2085; first compound 0.01 µM): 0.478 | relative viability (NCI-H2085; first compound 0.03162 µM): 0.458 | relative viability (NCI-H2085; first compound 0.1 µM): 0.494 | relative viability (NCI-H2085; first compound 0.3162 µM): 0.483 | relative viability (NCI-H2085; first compound 1 µM): 0.544 | relative viability (NCI-H2087; first compound 0.01 µM): 0.213 | relative viability (NCI-H2087; first compound 0.03162 µM): 0.298 | relative viability (NCI-H2087; first compound 0.1 µM): 0.243 | relative viability (NCI-H2087; first compound 0.3162 µM): 0.274 | relative viability (NCI-H2087; first compound 1 µM): 0.317 | relative viability (NCI-H2342; first compound 0.01 µM): 0.492 | relative viability (NCI-H2342; first compound 0.03162 µM): 0.513 | relative viability (NCI-H2342; first compound 0.1 µM): 0.447 | relative viability (NCI-H2342; first compound 0.3162 µM): 0.483 | relative viability (NCI-H2342; first compound 1 µM): 0.505 | relative viability (NCI-H358; first compound 0.01 µM): 0.182 | relative viability (NCI-H358; first compound 0.03162 µM): 0.141 | relative viability (NCI-H358; first compound 0.1 µM): 0.111 | relative viability (NCI-H358; first compound 0.3162 µM): 0.105 | relative viability (NCI-H358; first compound 1 µM): 0.0964 | relative viability (NCI-H647; first compound 0.01 µM): 0.434 | relative viability (NCI-H647; first compound 0.03162 µM): 0.424 | relative viability (NCI-H647; first compound 0.1 µM): 0.359 | relative viability (NCI-H647; first compound 0.3162 µM): 0.163 | relative viability (NCI-H647; first compound 1 µM): 0.125 | relative viability (PC-3 [JPC-3]; first compound 0.01 µM): 0.558 | relative viability (PC-3 [JPC-3]; first compound 0.03162 µM): 0.541 | relative viability (PC-3 [JPC-3]; first compound 0.1 µM): 0.537 | relative viability (PC-3 [JPC-3]; first compound 0.3162 µM): 0.538 | relative viability (PC-3 [JPC-3]; first compound 1 µM): 0.504 | relative viability (SW 1573; first compound 0.01 µM): 0.424 | relative viability (SW 1573; first compound 0.03162 µM): 0.453 | relative viability (SW 1573; first compound 0.1 µM): 0.466 | relative viability (SW 1573; first compound 0.3162 µM): 0.377 | relative viability (SW 1573; first compound 1 µM): 0.314
